Test results published in BindingDB's records for doi:10.1021/acs.jnatprod.0c01182 (Chinese Academy of Sciences, 2021).

How the values were obtained:
[1] = Reversal of P-gp-mediated multidrug resistance in human KB/VCR cells assessed as potentiation of vincristine-induced antiproliferative activity by measuring vincristine IC50 at 2 uM measured after 72 hrs by CCK8 assay (Rvb = 0.51 uM)
[2] = Reversal of P-gp-mediated multidrug resistance in human KB/VCR cells assessed as potentiation of vincristine-induced antiproliferative activity by measuring vincristine IC50 at 20 uM measured after 72 hrs by CCK8 assay (Rvb = 0.78 uM)

SMILES	IC50 [1] [nM]	IC50 [2] [nM]
CC(=O)O[C@@H]1[C@@H]2[C@@H](OC(C)=O)[C@]3(OC2(C)C)[C@H](C)CC[C@H](OC(C)=O)[C@@]3(C)[C@@H]1OC(=O)c1ccccc1	200	< 8
CC(=O)OC[C@]12[C@H](OC(C)=O)C(=O)[C@@H]3[C@@H](OC(C)=O)[C@]1(OC3(C)C)[C@H](C)[C@@H](O)[C@H](OC(C)=O)[C@@H]2OC(C)=O	550	390
CC(=O)OC[C@]12[C@H](OC(C)=O)C(=O)[C@@H]3[C@@H](O)[C@]1(OC3(C)C)[C@H](C)[C@@H](O)[C@H](OC(C)=O)[C@@H]2OC(C)=O	500	530
CC(=O)O[C@@H]1[C@H]2[C@H](O)[C@H](OC(=O)c3ccccc3)[C@]3(C)[C@@H](OC(C)=O)[C@H](O)C[C@@H](C)[C@@]13OC2(C)C	430	310
CC(=O)OC[C@]12[C@H](OC(C)=O)C(=O)[C@@H]3[C@@H](OC(C)=O)[C@]1(OC3(C)C)[C@H](C)C[C@H](O)[C@@H]2OC(C)=O	480	330
CCCCCC(=O)O[C@@H]1[C@@H]2[C@@H](OC(C)=O)[C@]3(OC2(C)C)[C@H](C)C[C@@H](OC(C)=O)[C@H](OC(C)=O)[C@@]3(C)[C@H]1OC(=O)c1ccccc1	350	21
CC(=O)OC[C@]12[C@H](OC(C)=O)C(=O)[C@@H]3[C@@H](O)[C@]1(OC3(C)C)[C@H](C)[C@@H](OC(C)=O)[C@H](OC(C)=O)[C@@H]2OC(C)=O	470	260
CC(=O)O[C@H]1[C@@H]2[C@@H](OC(C)=O)[C@]3(OC2(C)C)[C@H](C)C[C@@H](OC(C)=O)[C@H](OC(C)=O)[C@@]3(C)[C@H]1OC(=O)c1ccccc1	190	56
CC(=O)O[C@H]1[C@@H]2[C@@H](OC(=O)/C=C/c3ccccc3)[C@]3(OC2(C)C)[C@H](C)C[C@@H](OC(C)=O)[C@H](OC(C)=O)[C@@]3(C)[C@H]1OC(=O)c1ccccc1	100	< 8
CC(=O)O[C@@H]1[C@@H]2[C@@H](OC(C)=O)[C@]3(OC2(C)C)[C@H](C)C[C@@H](OC(C)=O)[C@H](OC(C)=O)[C@@]3(C)[C@@H]1OC(=O)c1ccccc1	150	22
CC(=O)O[C@@H]1[C@@H]2[C@@H](OC(C)=O)[C@]3(OC2(C)C)[C@H](C)C[C@H](OC(=O)/C=C/c2ccccc2)[C@H](OC(C)=O)[C@@]3(C)[C@@H]1OC(=O)c1ccccc1	100	26
CC(=O)O[C@H]1[C@@H]2[C@@H](OC(=O)c3cccnc3)[C@]3(OC2(C)C)[C@H](C)C[C@H](OC(C)=O)[C@@H](OC(C)=O)[C@@]3(C)[C@H]1OC(=O)c1ccccc1	64	< 8
CC(=O)O[C@H]1CC[C@@H](C)[C@]23OC(C)(C)[C@H](C[C@H](OC(=O)c4ccccc4)[C@]12C)[C@H]3OC(C)=O	210	15
CC(=O)O[C@@H]1[C@@H]2[C@@H](OC(C)=O)[C@]3(OC2(C)C)[C@H](C)CC[C@H](OC(C)=O)[C@@]3(C)[C@H]1OC(=O)c1ccccc1	240	34
CC(=O)O[C@@H]1C[C@@H](C)[C@]23OC(C)(C)[C@H]([C@@H](O)[C@H](OC(=O)c4ccccc4)[C@@]2(C)[C@H]1OC(C)=O)[C@H]3OC(=O)/C=C/c1ccccc1	48	–
CC(=O)O[C@H]1[C@@H]2[C@@H](OC(=O)/C=C/c3ccccc3)[C@]3(OC2(C)C)[C@H](C)C[C@H](O)[C@H](OC(C)=O)[C@@]3(C)[C@H]1OC(=O)c1ccccc1	37	–
CC(=O)O[C@H]1CC[C@@H](C)[C@]23OC(C)(C)[C@H](C[C@H](OC(=O)c4ccccc4)[C@]12C)[C@H]3OC(=O)c1ccccc1	100	–
CC(=O)O[C@@H]1C[C@@H](C)[C@]23OC(C)(C)[C@H](C[C@H](OC(=O)c4ccccc4)[C@]2(C)[C@H]1OC(C)=O)[C@H]3OC(=O)/C=C/c1ccccc1	58	–
COc1cc2c(cc1OC)CN(CCc1ccc(-n3nnc(-c4cc(OC)c(OC)cc4NC(=O)c4cc(=O)c5ccccc5o4)n3)cc1)CC2 [Encequidar]	16	–
